Series [1] has as its target T1, human κ-opioid receptor (OPRK1) (Homo sapiens, UniProt P41145).
T1 construct: host or cells: HEK293 (constitutive expression)
Briefly: Intracellular calcium mobilization (FLIPR Tetra), HEK-hKOR agonism. Type of series: cell-based. The settings on record: for agonistic activity at the κ-opioid receptor: HEK-hKOR calcium mobilization; for activation at 10 µM: read-out: % Stimulation at 10 μM, OPRK1 Agonism against DynorphinA (370 nM). The protocol: Intracellular calcium mobilization was measured by using FLIPR Tetra System (Molecular Devices, Sunnyvale, CA, USA) in accordance with manufacturer’s instruction. […] Subsequently, the plate was transferred to the FLIPR tetra system for treating 50 μL of the 5× compounds diluted in loading buffer and reading intracellular calcium mobilization. The final concentration of DMSO was 0.1%. […] A dose response curve was generated with the changes in Relative Fluorescence Units (∆RFU) versus Log10 dose.
Experimental details for Biology
Cell culture. HEK293 cells stably expressing human DA transporter (HEK-hDAT), human NE transporter (HEK-hNET) and human serotonin transporter (HEK-hSERT) were kindly provided by Professor Bryan Roth (University of North Carolina at Chapel Hill). And HEK293 cells constitutively expressing human κ- or μ- opioid receptor (HEK-hKOR_NM000912 or HEK-hMOR_NM000914) were constructed by Professor Ki Duk Park (in Korea Institute of Science […]
Europins DiscoveRx (Fremont, CA, USA). Cells were mainta ined in Dulbecco's modified Eagle's medium (HyClone, Logan, UT, USA) supplemented with 10%(v/v) fetal bovine serum (FBS, HyClone, Logan, UT, USA), penicillin (100 U/mL), and streptomycin (100 μg/mL) in the […]
for HEK-hDAT, HEK-hNET, HEK-hSERT, HEK-hKOR and HEK-hMOR respectively) in a humidified 5% CO2 incubator at 37 °C. In case of both HEK-hKOR and HEK-hMOR, cells were additionally maintained in 0.2 mg/mL hygromycin B, 1 μg/mL puromycin B, 1× non-essential amino acids. The cells were subcultured every 3-4 days. […]

The target in series [2] is human norepinephrine transporter (hNET) (Homo sapiens, UniProt P23975). The experiment in a line: Neurotransmitter transporter uptake assay, HEK-hNET. Type of series: cell-based.
The target in series [3] is T2, human μ-opioid receptor (OPRM1) (Homo sapiens, UniProt P35372).
T2 construct: host or cells: HEK293 (constitutive expression)
Briefly: Intracellular calcium mobilization (FLIPR Tetra), HEK-hMOR agonism. In kind it is cell-based. As to conditions: for agonistic activity at the μ-opioid receptor: compared to DAMGO.

The nature of series [4]: In vitro metabolic stability, mouse. In kind it is in vitro ADME. As to conditions: pH 7.4, % remaining after 30 min incubation with S9 microsomal fraction. Here is the method:
(§1) Experimental details for Biology […]
(§2) Microsomal stability. The metabolic stability of compounds was evaluated in rat liver microsomes (RLM). Microsomes (0.5 mg/ml) and test compound (1 µM) in 100 mM potassium phosphate buffer (pH 7.4) were preincubated with shaking (100 rpm) for 5 min at 37 °C. The metabolic reaction was initiated by the addition of an NADPH generating system (60 mM potassium phosphate buffer pH 7.4, 1.3 mM NADP, 3.3 mM glucose-6-phosphate, 0.3 µL glucose-6-phosphate dehydrogenase (0.4 U/mL), and 3.3 mM magnesium chloride) and incubated at 37 °C. Aliquots of 100 µL were withdrawn at 0, 10, 20, 30 and 60 min, and 2 volumes of ice-cold acetonitrile (ACN) were added to terminate the reaction. After mixing by vortex and centrifugation (14000 rpm) for 15 min at 4 °C, the supernatant was transferred to liquid chromatography vials and analyzed by an LC-MS/MS system.
(§3) Table S1. In vitro metabolic stability of selected compounds.
(§4) Compounds Human Rat Mouse […]
(§5) a% remaining after 30 min incubation with S9 microsomal fraction.

The test system of series [5] is spinal-nerve-ligated neuropathic pain rats. Briefly: Spinal nerve ligation (SNL) neuropathic pain model, von Frey paw withdrawal threshold, intrathecal. Type of series: in vivo, rat. The settings on record: for maximum possible effect (MPE): highest dose (12: 100 μg; 17: 30 μg); for effect on paw withdrawal threshold (PWT) / allodynia: vs vehicle. The protocol:
Adult male Sprague-Dawley rats weighing 150–180 g each were used. The animals were housed in a room with a constant temperature of 22–23 °C and an alternating 12-h light/dark cycle, with unrestricted access to food and water. Implantation of intrathecal catheters was performed for drug administration under sevoflurane anesthesia, as described previously. Seven days of recovery were allowed after surgery before the use of catheterized rats in the experiments. Spinal nerve-ligated neuropathic pain was induced by tightly ligating the left L5 and L6 spinal nerves, as described previously. Only rats showing allodynia after either spinal nerve ligation (withdrawal threshold < 4 g) were studied. The von Frey test was used to determine the 50% probability paw withdrawal threshold (PWT), using the up and down method, in which a positive response was defined as brisk withdrawal or paw flinching during or immediately after application of a filament. On experimentation days (12 days after SNL), rats were acclimatized in a box with a wire mesh floor for at least 20 min before being randomly allocated to one of the experimental groups. All experiments were carried out by an observer who was blind to the treatments. To investigate the effects of 12 (30 or 100 μg) and 17 (10 or 30 μg), it was supplied intrathecally following post-injury baseline PWT determination in rats with either spinal nerve-ligated neuropathic pain. Withdrawal thresholds were determined at 15, 30, 60, 90, 120, 150, and 180 min after intrathecal administration.
All data are expressed as means ± SEM. The time-response data are presented as the withdrawal threshold in grams. The dose-response data are presented as a percentage of the maximum possible effect (%MPE): %MPE = ((post-drug threshold−post-injury baseline threshold)/(cutoff threshold−post-injury baseline threshold)) × 100. Time and dose-response data were analyzed by a one-way and two-way repeated measures analysis of variance (ANOVA), with a Bonferroni’s post hoc test. A p-value < 0.05 was considered statistically significant.

Series [6] concerns the target human dopamine transporter (hDAT) (Homo sapiens, UniProt Q01959). Briefly: Neurotransmitter transporter uptake assay, HEK-hDAT. In kind it is cell-based.
In the next series the test system is rats. The experiment in a line: Behavioral responses: motor functions (righting, placing/stepping reflexes), pinna and corneal reflexes after intrathecal administration. Type of series: in vivo, rat. The settings on record: highest doses, examined for 3 h. Here is the method:
Motor functions were assessed by examining righting and placing/stepping reflexes. […] The […] was evoked by the rat drawing the dorsum of either hind paw across the edge of a table. Normally, rats attempt to place a paw into a position that enables walking. The pinna and corneal reflexes were evoked by stimulating the ear canal or cornea, respectively, with a string. Normally, rats spontaneously shake their heads or blink. Normality of behavior was classified as present or absent. To evaluate the behavioral changes induced by compounds 12 and 17, additional rats were examined for 3 h after intrathecal administration of the highest doses of the agents used. The motor function and pinna and corneal reflexes were normal after intrathecal administration of compounds 12 and 17 at the highest doses. Overt abnormal behavioral changes were not observed.

Series [7] concerns the target human serotonin transporter (hSERT) (Homo sapiens, UniProt P31645). The experiment in a line: Neurotransmitter transporter uptake assay, HEK-hSERT. In kind it is cell-based.
The nature of series [8]: In vitro metabolic stability, human. Type of series: in vitro ADME. The settings on record: for in vitro metabolic stability: S9 microsomal fraction, 30 min, Table S1; for recovery at 30 min, 1 µM: human, pH 7.4, % remaining after 30 min incubation with S9 microsomal fraction. The protocol:
as §1, §2, §3, §4, §5

Series [9] in a line: In vitro metabolic stability, rat. In kind it is in vitro ADME. The settings on record: pH 7.4, % remaining after 30 min incubation with S9 microsomal fraction. The protocol:
as §1, §2, §3, §4, §5

The target in a further series is T3, hOPRM1 receptor (Homo sapiens, UniProt P35372).
T3 construct: host or cells: CHO-K1
The experiment in a line: PathHunter CHO-K1 OPRM1 β-arrestin recruitment assay. In kind it is cell-based.

The next series concerns hMOR. Set-up: method as in earlier work. The settings on record: ref 21 (Gassaway et al.); cited from earlier work.
A further series concerns mMOR. Set-up: method as in earlier work. The settings on record: ref 21 (Gassaway et al.); cited from earlier work.

Each structure is given as a SMILES string. Entries after “also recorded” stand apart in the source; their conditions may differ. Where two headings read alike, the source gives them in different places. Marks after values point to notes of the source that are not given here.

T1 sequence (P41145 whole entry): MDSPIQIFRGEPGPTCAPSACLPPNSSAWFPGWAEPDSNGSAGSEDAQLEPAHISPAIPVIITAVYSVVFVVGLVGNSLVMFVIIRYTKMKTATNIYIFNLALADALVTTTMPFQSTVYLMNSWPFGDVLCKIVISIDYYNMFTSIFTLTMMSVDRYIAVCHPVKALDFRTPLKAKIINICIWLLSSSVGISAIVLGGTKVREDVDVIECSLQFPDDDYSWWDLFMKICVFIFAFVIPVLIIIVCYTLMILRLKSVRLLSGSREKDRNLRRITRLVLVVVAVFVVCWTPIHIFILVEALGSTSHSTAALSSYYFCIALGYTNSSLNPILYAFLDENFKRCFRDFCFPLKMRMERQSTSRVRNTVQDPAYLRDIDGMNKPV
Chain of human serotonin transporter (hSERT) (P31645 whole entry): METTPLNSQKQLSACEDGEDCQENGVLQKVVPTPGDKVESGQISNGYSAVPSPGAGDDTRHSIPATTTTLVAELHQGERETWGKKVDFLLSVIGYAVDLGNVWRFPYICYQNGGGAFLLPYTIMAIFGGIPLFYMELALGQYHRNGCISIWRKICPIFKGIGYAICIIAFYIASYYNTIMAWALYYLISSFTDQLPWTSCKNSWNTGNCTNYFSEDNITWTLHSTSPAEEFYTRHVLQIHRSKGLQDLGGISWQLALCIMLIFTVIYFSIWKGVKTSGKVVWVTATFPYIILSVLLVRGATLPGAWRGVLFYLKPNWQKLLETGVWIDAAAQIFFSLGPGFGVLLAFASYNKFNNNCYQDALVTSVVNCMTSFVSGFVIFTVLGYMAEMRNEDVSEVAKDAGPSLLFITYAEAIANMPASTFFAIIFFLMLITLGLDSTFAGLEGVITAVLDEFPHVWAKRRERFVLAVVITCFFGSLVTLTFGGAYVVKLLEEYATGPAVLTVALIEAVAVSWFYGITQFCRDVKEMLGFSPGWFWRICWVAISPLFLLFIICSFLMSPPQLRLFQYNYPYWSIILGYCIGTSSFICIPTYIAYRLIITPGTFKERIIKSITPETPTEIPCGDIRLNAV
T2 sequence (P35372 whole entry): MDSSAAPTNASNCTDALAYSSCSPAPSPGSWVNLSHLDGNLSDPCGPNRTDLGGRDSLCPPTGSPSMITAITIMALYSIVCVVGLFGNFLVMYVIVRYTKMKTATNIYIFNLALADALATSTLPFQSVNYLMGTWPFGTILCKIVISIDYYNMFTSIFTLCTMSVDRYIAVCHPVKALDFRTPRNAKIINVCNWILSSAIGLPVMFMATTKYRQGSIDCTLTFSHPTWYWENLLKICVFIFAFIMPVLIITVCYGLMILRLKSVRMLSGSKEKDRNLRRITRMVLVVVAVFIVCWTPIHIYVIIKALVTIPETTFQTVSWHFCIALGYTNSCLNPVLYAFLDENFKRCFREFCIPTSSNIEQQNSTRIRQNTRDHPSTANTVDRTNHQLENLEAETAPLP
T3 sequence (P35372 whole entry): as above
Chain of human dopamine transporter (hDAT) (Q01959 whole entry): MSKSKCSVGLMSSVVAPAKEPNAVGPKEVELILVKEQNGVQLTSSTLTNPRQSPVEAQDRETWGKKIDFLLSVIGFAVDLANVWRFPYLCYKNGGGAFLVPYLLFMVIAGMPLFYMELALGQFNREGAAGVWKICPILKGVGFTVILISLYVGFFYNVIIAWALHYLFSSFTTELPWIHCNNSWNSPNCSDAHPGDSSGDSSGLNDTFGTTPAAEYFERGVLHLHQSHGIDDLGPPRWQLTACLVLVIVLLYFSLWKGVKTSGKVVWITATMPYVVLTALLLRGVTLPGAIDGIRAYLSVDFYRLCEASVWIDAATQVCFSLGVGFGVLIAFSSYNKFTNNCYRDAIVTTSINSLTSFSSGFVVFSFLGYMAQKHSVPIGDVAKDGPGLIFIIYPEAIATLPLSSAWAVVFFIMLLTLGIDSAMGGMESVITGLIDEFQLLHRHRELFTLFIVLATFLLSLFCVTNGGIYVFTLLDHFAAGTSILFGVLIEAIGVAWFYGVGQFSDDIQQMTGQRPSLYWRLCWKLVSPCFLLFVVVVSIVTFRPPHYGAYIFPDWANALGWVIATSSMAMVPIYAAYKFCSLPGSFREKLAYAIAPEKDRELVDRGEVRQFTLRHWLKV
Chain of human norepinephrine transporter (hNET) (P23975 whole entry): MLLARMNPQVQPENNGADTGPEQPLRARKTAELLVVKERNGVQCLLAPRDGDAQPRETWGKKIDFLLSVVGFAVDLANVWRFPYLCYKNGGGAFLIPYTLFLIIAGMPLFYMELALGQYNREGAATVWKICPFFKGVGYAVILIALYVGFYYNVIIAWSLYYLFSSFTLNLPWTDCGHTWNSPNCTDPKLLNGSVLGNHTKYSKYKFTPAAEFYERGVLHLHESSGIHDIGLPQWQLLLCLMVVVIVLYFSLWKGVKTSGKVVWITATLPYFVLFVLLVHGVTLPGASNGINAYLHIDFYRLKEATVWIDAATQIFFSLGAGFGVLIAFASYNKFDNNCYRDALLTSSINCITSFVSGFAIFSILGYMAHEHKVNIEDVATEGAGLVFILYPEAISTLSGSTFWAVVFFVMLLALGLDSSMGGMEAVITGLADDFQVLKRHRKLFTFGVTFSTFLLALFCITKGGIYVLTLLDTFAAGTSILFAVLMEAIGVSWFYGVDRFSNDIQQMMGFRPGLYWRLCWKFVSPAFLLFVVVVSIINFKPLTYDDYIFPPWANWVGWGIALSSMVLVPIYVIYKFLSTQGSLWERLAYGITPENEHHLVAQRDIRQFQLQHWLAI

For `CN1c2ccccc2C(NCCCCCCC(=O)NCCc2c[nH]c3ccc(O)cc23)c2ccc(Cl)cc2S1(=O)=O` (centres unmarked) [Compound 12, 7-((3-chloro-6-methyl-5,5-dioxido-6,11-dihydrodibenzo[c,f][1,2]thiazepin-11-yl)amino)-N-(2-(5-hydroxy-1H-indol-3-yl)ethyl)heptanamide], the melting point was 92 to 95 °C. Also, in series [1], the “agonistic activity at the κ-opioid receptor” value was “did not show agonistic activities” and the activation at 10 µM was less than 10%. Further, in series [2] (10 μM, HEK-hNET, mean ± SEM, n = 3–6, read-out: % Inhibition at 10 μM hNET), the inhibition at 10 µM was 30.1 ± 0.87%. In series [3], the concentration giving a half-maximal response (EC50) was 1200 ± 244 nM. Moreover, in series [3] (HEK-hMOR calcium mobilization), the “agonistic activity at the μ-opioid receptor” value was “partial agonisms”. Besides, the recovery at 30 min, 1 µM in [4] came to 5%. Besides, in series [5], the “maximum possible effect (MPE)” value turned out to be 73% and the “effect on paw withdrawal threshold (PWT) / allodynia” value is “dose-dependent increase in the withdrawal threshold; also recorded: increased the paw withdrawal threshold (PWT) compared to the vehicle”. Further, the half-inhibitory concentration (IC50) in [6] is 9.66 ± 1 µM. Further, the “motor function and pinna and corneal reflexes” value in the series with rats is given as “normal”. In series [7], this compound displayed an IC50 of 258 ± 57 nM. Also, in series [8], the “in vitro metabolic stability” value is given as “extremely low” and the recovery at 30 min, 1 µM turned out to be 5%. The same compound displayed a recovery at 30 min, 1 µM in series [9] of 6%. The 50% effective concentration (EC50) at hOPRM1 receptor was 134 ± 12 nM.
`CN1c2ccccc2C(NCCCCCCCNCCc2c[nH]c3ccc(O)cc23)c2ccc(Cl)cc2S1(=O)=O` (centres unmarked) [Compound 17, 3-chloro-11-((7-((2-(5-hydroxy-1H-indol-3-yl)ethyl)amino)heptyl)amino)-6-methyl-6,11-dihydrodibenzo[c,f][1,2]thiazepine 5,5-dioxide]: the “agonistic activity at the κ-opioid receptor” value in [1] is listed as “no influence; also recorded: did not show agonistic activities”. For the same compound, the activation at 10 µM in series [1] was less than 10%. Besides, the half-maximal inhibitory concentration (IC50) in [2] came to 154 ± 7 nM; in [6], 2.01 ± 0.65 µM; in series [7] (HEK-hSERT, neurotransmitter uptake, mean ± SEM, n = 3–6, read-out: IC50 hSERT), 70 ± 9 nM. Further, the half-maximal effective concentration (EC50) in series [3] was determined as 384 ± 25 nM; on hOPRM1 receptor, 1560 ± 195 nM. Also, the “fold increase in Ca2+ efflux in HEK-hMOR” value in series [3] (HEK-hMOR) is recorded as 5.9 fold. Moreover, the “agonistic activity at the μ-opioid receptor” value in series [3] (HEK-hMOR calcium mobilization) is on record as “partial agonisms”. Also, the recovery at 30 min, 1 µM in [4] came out at 1%; in series [8] it was 0%; in series [9], 1%. Moreover, in series [5], the “maximum possible effect (MPE)” value worked out at 83%. For the same compound, the “effect on paw withdrawal threshold (PWT) / allodynia” value in series [5] is on record as “increased mechanical withdrawal threshold compared to vehicle; also recorded: significantly reduced allodynia; also recorded: increased the PWT; also recorded: showed antiallodynic effects at the spinal level”. Moreover, in the series on rats, the “motor function and pinna and corneal reflexes” value was “normal”. Besides, the “fold higher hSERT inhibitory activity than compound 12” value in series [7] (IC50 ratio vs compound 12) came to 3 fold. For the same compound, the “in vitro metabolic stability” value in [8] is recorded as “extremely low”. The “β-arrestin recruitment” value on hOPRM1 receptor (CHO-K1 OPRM1) is “lower levels of β-arrestin recruitment than compound 12”.
`CN1c2ccccc2C(NCCCCCCC(=O)O)c2ccc(Cl)cc2S1(=O)=O` (centres unmarked) [Tianeptine, reference compound]: the EC50 in the series on hMOR was 194 nM; with mMOR it was 641 nM; on hOPRM1 receptor, greater than 5000 nM. In addition, the “agonistic activity at the κ-opioid receptor” value in [1] is “did not show appreciable biological activities”. Also, the activation at 10 µM in series [1] is less than 10%. Further, the “% Stimulation at 10 μM, OPRM1 Agonism against DAMGO (3.9 μM)” value in series [3] (10 μM, HEK-hMOR calcium mobilization, normalized to Emax of DAMGO at 3.9 μM) is on record as less than 10% ^b. The “agonistic activity at the μ-opioid receptor” value in [3] (HEK-hMOR calcium mobilization) is “did not show appreciable biological activities”.

The record behind these values is paper PMC9030932, “Development of Dibenzothiazepine Derivatives as Multifunctional Compounds for Neuropathic Pain” (Pharmaceuticals, 2022).
